Experimental data reported in patent US9326973B2, “Hepatitis C virus inhibitors” (priority 2012, dated 2016).

What was measured:
Type in all cases: cell-based, HCV genotype 1a
[1] = system: HCV replicon, genotype 1a L31V variant with leucine 31 changed to valine in the NS5A protein; conditions: test compound titrated in combination with a fixed 200 nM compound N47; genotype 1a L31V replicon
[2] = system: HCV replicon, genotype 1a Y93H variant with tyrosine 93 changed to histidine in the NS5A protein; conditions: test compound titrated in combination with a fixed 200 nM compound N47; genotype 1a Y93H replicon
Method: Combinations can be examined for synergistic activity using a variety of putative NS5A-targeting compounds and a variety of test compounds. […] The test compound can be chosen from compounds exemplified below, which were prepared by methods known in the art, or from others disclosed in the literature.
Similarly, BMS-790052 can be tested singly and in combination with a fixed amount of compound N47 in the HCV replicon cell based assay consisting of the genotype 1a Y93H variant with tyrosine 93 changed to histidine in the NS5A protein.

[3] = system: HCV replicon, genotype-1a variant with glutamine 30 changed to glutamate in the NS5A protein; assay: microbe, parasite or virus in culture; conditions: HCV replicon genotype 1a Q30E (Q→E) variant; test compound titrated with an NS5A-targeting compound (BMS-790052 fixed at 200 nM); ranking of synergist activity
Method in brief: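 Synergy was assessed by combining several fixed amounts of an NS5A-targeting compound with a titration of the second compound of interest.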

Structure (SMILES) | Fold-Synergistic G-1a (L31V) [1] [Fold] | Fold-Synergistic G-1a (Y93H) [2] [Fold] | Fold-Synergistic 1a (Q30E) [3] [fold]
O=C(Nc1ccc(/C=C/c2ccc(NC(=O)[C@@H]3CCCN3C(=O)Cc3ccccc3)cc2)cc1)C1CCCN1C(=O)Cc1ccccc1 (some centres unmarked) | <10 | <10 | 
O=C(Nc1ccc(/C=C/c2ccc(NC(=O)[C@@H]3CCCN3C(=O)Cc3cccnc3)nc2)cn1)C1CCCN1C(=O)Cc1cccnc1 (some centres unmarked) | <10 | <10 | 
CN(C)[C@@H](C(=O)N1CCCC1c1cnc(-c2ccc3nc([C@@H]4CCCN4C(=O)[C@@H](c4ccccc4)N(C)C)[nH]c3c2)o1)c1ccccc1 (some centres unmarked) | <10 | <10 | 
COC(=O)N[C@@H](C(=O)N1CCC[C@H]1c1ncc(-c2ccc(-c3ccc(-c4cnc([C@@H]5CCCN5C(=O)[C@H](NC(=O)OC)c5ccccc5)[nH]4)cc3)cc2)[nH]1)c1ccccc1 | <10 |  | 
CN(C)[C@@H](C(=O)N1CCCC[C@H]1c1ncc(-c2ccc(-c3ccc(-c4cnc([C@@H]5CCCCN5C(=O)[C@@H](c5ccccc5)N(C)C)[nH]4)cc3)cc2)[nH]1)c1ccccc1 |  | <10 | 
COC(=O)N[C@H](C(=O)N1CCC[C@H]1c1nc2cc(C#Cc3ccc4[nH]c([C@@H]5CCCN5C(=O)[C@@H](NC(=O)OC)C(C)C)nc4c3)ccc2[nH]1)C(C)C |  | <10 | 
COC(=O)N[C@@H](C)C(=O)N1[C@@H]2CC[C@@H](C2)[C@H]1c1nc(-c2ccc(-c3ccc(C4=CNC([C@@H]5[C@H]6CC[C@H](C6)N5C(=O)[C@H](C)NC(=O)OC)N4)cc3)cc2)c[nH]1 (some centres unmarked) | >10 | <10 | 
COC(=O)N[C@H](C(=O)N1C[C@H](C)C[C@H]1c1ncc(-c2ccc(-c3ccc(-c4cnc([C@@H]5C[C@@H](C)CN5C(=O)[C@@H](NC(=O)OC)C(C)C)[nH]4)cc3)cc2)[nH]1)C(C)C | >100 | >100 | 
COC(=O)N[C@H](C(=O)N1CCC[C@H]1C1=C(c2ccc(C#Cc3ccc4[nH]c([C@@H]5CCCN5C(=O)[C@@H](NC(=O)OC)C(C)C)nc4c3)cc2)NCN1)C(C)C | <10 | >10 | 
COC(=O)N[C@@H](C(=O)N1CCCC1c1ncc(C#CC#Cc2cnc([C@@H]3CCCN3C(=O)[C@H](NC(=O)OC)c3ccccc3)[nH]2)[nH]1)c1ccccc1 (some centres unmarked) | <10 | <10 | 
COC(=O)NC(C(=O)N1[C@@H]2C[C@@H]2C[C@H]1c1nc2ccc(-c3ccc4cc(-c5ccc6nc([C@@H]7C[C@H]8C[C@H]8N7C(=O)[C@@H](NC(=O)OC)C(C)C)[nH]c6c5)ccc4c3)cc2[nH]1)C(C)C (some centres unmarked) | >10 | >10 | 
COC(=O)N[C@H](C(=O)N1C(c2nc3ccc4cc(C#Cc5ccc6c(ccc7nc([C@@H]8CC9CC9N8C(=O)[C@@H](NC(=O)OC)C(C)C)[nH]c76)c5)ccc4c3[nH]2)C[C@H]2C[C@H]21)C(C)C (some centres unmarked) | <10 | >100 | 
COC(=O)N[C@H](C(=O)N1[C@@H]2C[C@@H]2C[C@H]1C(=O)Nc1ccc(C23CC4C5CC6(c7ccc(NC(=O)[C@@H]8C[C@H]9C[C@H]9N8C(=O)[C@@H](NC(=O)OC)C(C)C)cc7)CC4C(C2)C(C6)C5C3)cc1)C(C)C | <10 | <10 | 
COC(=O)NC(C(=O)N1[C@@H]2C[C@@H]2C[C@H]1c1ncc(-c2cccc(-c3ccc4cc(-c5cnc([C@H]6C[C@@H]7C[C@@H]7N6C(=O)[C@@H](NC(=O)OC)C(C)C)[nH]5)ccc4c3)c2)[nH]1)C(C)C (some centres unmarked) | <10 | >10 | 
COC(=O)N[C@H](C(=O)N1[C@@H]2C[C@@H]2C[C@H]1c1ncc(-c2ccc(C3C[C@H]3c3ccc(-c4cnc([C@@H]5C[C@H]6C[C@H]6N5C(=O)[C@@H](NC(=O)OC)C(C)C)[nH]4)cc3)cc2)[nH]1)C(C)C (some centres unmarked) | >10 | >10 | 
COC(=O)N[C@H](C(=O)N1CCC[C@H]1c1cn(-c2ccc(-c3ccc(-n4cnc([C@@H]5CCCN5C(=O)[C@@H](NC(=O)OC)C(C)C)c4)cc3)cc2)cn1)C(C)C | >10 | >10 | 
COC(=O)NC(C(=O)N1[C@@H](C)CC[C@H]1C1=NCC(c2ccc(-c3cnc(-c4cnc([C@@H]5CC[C@H](C)N5C(=O)[C@@H](NC(=O)OC)[C@H]5C[C@@H](C)O[C@@H](C)C5)[nH]4)c4cccn34)cc2)N1)[C@H]1C[C@@H](C)O[C@@H](C)C1 (some centres unmarked) | >10 | >100 | 
CC(C)(C)C(=O)N[C@H](c1ncc(-c2ccc(-c3ccc(-c4cnc([C@@H](NC(=O)C(C)(C)C)C(C)(C)CF)[nH]4)cc3)cc2)[nH]1)C(C)(C)CF [Compound Y-68] |  |  | >100
CC(C)(C)[C@H](NC(=O)C1CCC(C(F)F)CC1)c1nc(-c2ccc(-c3ccc(-c4c[nH]c([C@@H](NC(=O)C5CCC(C(F)F)CC5)C(C)(C)C)n4)cc3)cc2)c[nH]1 (some centres unmarked) [Compound Y-71] |  |  | >100
CC(C)(C)[C@H](NC(=O)c1ccccc1O)c1nc(-c2ccc(-c3ccc(-c4c[nH]c([C@@H](NC(=O)c5ccccc5O)C(C)(C)C)n4)cc3)cc2)c[nH]1 [Compound Y-72] |  |  | >100
CC(C)(C)[C@H](NC(=O)Cc1ccccc1OC(F)(F)F)c1nc(-c2ccc(-c3ccc(-c4c[nH]c([C@@H](NC(=O)Cc5ccccc5OC(F)(F)F)C(C)(C)C)n4)cc3)cc2)c[nH]1 [Compound Y-73] |  |  | >100
CC(C)(C)[C@H](NC(=O)C12CCC(CC1)CO2)c1nc(-c2ccc(-c3ccc(-c4c[nH]c([C@@H](NC(=O)C56CCC(CC5)CO6)C(C)(C)C)n4)cc3)cc2)c[nH]1 [Compound Y-74] |  |  | >100
CC(C)(C)[C@H](NC(=O)[C@@]1(C)CC(F)(F)CCO1)c1nc(-c2ccc(-c3ccc(-c4c[nH]c([C@@H](NC(=O)[C@@]5(C)CC(F)(F)CCO5)C(C)(C)C)n4)cc3)cc2)c[nH]1 [Compound Y-75] |  |  | >100
CC(C)(C)[C@H](NC(=O)[C@@]1(C)CC(F)(F)CO1)c1nc(-c2ccc(-c3ccc(-c4c[nH]c([C@@H](NC(=O)[C@@]5(C)CC(F)(F)CO5)C(C)(C)C)n4)cc3)cc2)c[nH]1 [Compound Y-77] |  |  | >100
CC(C)[C@H](NC(=O)[C@@]1(C)CCC(F)(F)CO1)c1nc(-c2ccc(-c3ccc(-c4c[nH]c([C@@H](NC(=O)[C@@]5(C)CCC(F)(F)CO5)C(C)C)n4)cc3)cc2)c[nH]1 [Compound Y-78] |  |  | >100
CC(C)[C@H](NC(=O)[C@@]1(C)CC(F)(F)CCO1)c1nc(-c2ccc(-c3ccc(-c4c[nH]c([C@@H](NC(=O)[C@@]5(C)CC(F)(F)CCO5)C(C)C)n4)cc3)cc2)c[nH]1 [Compound Y-79] |  |  | >100
CC(C)[C@H](NC(=O)[C@@]1(C)CC(F)(F)CO1)c1nc(-c2ccc(-c3ccc(-c4c[nH]c([C@@H](NC(=O)[C@@]5(C)CC(F)(F)CO5)C(C)C)n4)cc3)cc2)c[nH]1 [Compound Y-80] |  |  | >100
CC1([C@H](NC(=O)[C@@]2(C)CCC(F)(F)CO2)c2nc(-c3ccc(-c4ccc(-c5c[nH]c([C@@H](NC(=O)[C@@]6(C)CCC(F)(F)CO6)C6(C)CC6)n5)cc4)cc3)c[nH]2)CC1 [Compound Y-81] |  |  | >100
CC1([C@H](NC(=O)[C@@]2(C)CC(F)(F)CCO2)c2nc(-c3ccc(-c4ccc(-c5c[nH]c([C@@H](NC(=O)[C@@]6(C)CC(F)(F)CCO6)C6(C)CC6)n5)cc4)cc3)c[nH]2)CC1 [Compound Y-82] |  |  | >100
CC1([C@H](NC(=O)[C@@]2(C)CC(F)(F)CO2)c2nc(-c3ccc(-c4ccc(-c5c[nH]c([C@@H](NC(=O)[C@@]6(C)CC(F)(F)CO6)C6(C)CC6)n5)cc4)cc3)c[nH]2)CC1 [Compound Y-83] |  |  | >100
